# Source: patent US20230137956A1, “ALPHA SUBSTITUTED STAT INHIBITORS AND COMPOSITIONS THEREOF” (JANPIX LIMITED, priority 2020, published 2023)
# Read-outs that look alike come from different tables or passages of the source.
# Experiments:
# MV4-11 cells = experiment: MV4-11 Cell Cytotoxicity Assay; assay type: cell-based, human; details: 72 h incubation, CellTiter-Blue, read-out: IC50-MV-4-11
# Method: In some embodiments, the potency of the STAT5 inhibitors are evaluated by an in vitro assay such as MV4-11 Cell Cytotoxicity Assay. MV4-11 cells were grown in Iscove's Modified Dulbecco's Medium (IMDM) supplemented with 10% fetal bovine serum (FBS). 10,000 cells were plated per well in 96-well flat-bottom sterile culture plates with low-evaporation lids. After 24 h, inhibitors and a vehicle control (0.5% DMSO) were added and the cells were incubated for 72 h at 37° C. in 5% CO2. Inhibitors were examined in triplicate at a maximal concentration of 50 μM, followed by 1:2 dilutions in subsequent wells (25, 12.5, 6.25, 3.125, 1.5625, 0.78125, 0.390625, 0.195313 and 0.097656 μM). After 72 h, the wells were treated with CellTiter-Blue® (20 μL/well), and the plates were incubated using standard cell culture conditions for 1 hour. Fluorescence was measured at 560/590 nm.
# glutathione (GSH) = experiment: Reactivity Profiling with Glutathione (GSH); assay type: in vitro ADME; details: cell culture medium (IMDM, 10% FBS) with 5 mM glutathione, 25 μM inhibitor, IMDM with 10% FBS, 0.5% DMSO, 25° C., HPLC, read-out: T1/2-GSH
# Method: In some embodiments, metabolic stability of the compounds is evaluated according to their reactivity profiles with GSH.
# 3.5 μL of 5 mM stocking solution of the inhibitors in DMSO was added to 697.5 μL of Iscove's Modified Dulbecco's Medium (IMDM) supplemented with 10% FBS and antibiotic antimycotic solution, with 5 mM glutathione to afford a final concentration of 25 μM inhibitor with 0.5% DMSO. The solution was then immediately placed in the sample tray at 25° C. Sample was analyzed at pre-defined intervals, typically every 1.5 hours, for up to four injections, by HPLC, included at time zero, without further pre-treatment. For each inhibitor, its peak is integrated at different time points and compared to the time zero injection in order to obtain a percentage remaining. Half-life is calculated according to a first order reaction kinetic taking into account those time points for which remaining percentage of inhibitor is above 40%, using the formula: t½=Ln(2)/k, where k is the slope of the linear plot of Ln[Inhibitor] vs time, according to the formula: Ln[A]=Ln[A]0−kt, where [A] is the value resulting from the integration at each time point, [A]0 the value at time zero, and t the time. For each inhibitor, both replicates are averaged and the resulting t½ reported. Selective reactivity against GSH in particular is confirmed by incubation of the inhibitor in the same solution without the presence of GSH, and single analysis after a time longer than the latest time point analyzed for the samples with GSH.
SMILES,"IC50 (MV4-11 cells; Homo sapiens, MV4-11, 72 h) [µM]",half-life at 25 μM (glutathione (GSH)) [h],also measured
"CC(C)C[C@H](C(=O)N(Cc1cc(C2CC2)cc(C(C)(C)C)c1)c1ccc(C(=O)O)c(O)c1)N(Cc1ccc(Cl)cc1)S(=O)(=O)c1c(F)c(F)c(F)c(F)c1F [Compound 1001, (R)-4-(N-(3-(tert-butyl)-5-cyclopropylbenzyl)-2-(N-(4-chlorobenzyl)-(2,3,4,5,6-pentafluorophenyl)sulfonamido)-4-methylpentanamido)-2-hydroxybenzoic acid]",–,–,IC50 (MV4-11 cells): 1e-05 to 5 µM
"C[C@@H](C(=O)N(Cc1cc(C2CC2)cc(C(C)(C)C)c1)c1ccc(C(=O)O)c(O)c1)N(Cc1ccc(Cl)cc1)S(=O)(=O)c1c(F)c(F)c(F)c(F)c1F [Compound 1002, (S)-4-(N-(3-(tert-butyl)-5-cyclopropylbenzyl)-2-(N-(4-chlorobenzyl)-(2,3,4,5,6-pentafluorophenyl)sulfonamido)propanamido)-2-hydroxybenzoic acid]",1e-05 to 5,–,–
"CC(C)[C@@H](C(=O)N(Cc1cc(C2CC2)cc(C(C)(C)C)c1)c1ccc(C(=O)O)c(O)c1)N(Cc1ccc(Cl)cc1)S(=O)(=O)c1c(F)c(F)c(F)c(F)c1F [Compound 1003, (S)-4-(N-(3-(tert-butyl)-5-cyclopropylbenzyl)-2-(N-(4-chlorobenzyl)-(2,3,4,5,6-pentafluorophenyl)sulfonamido)-3-methylbutanamido)-2-hydroxybenzoic acid]",1e-05 to 5,–,–
"C[C@H](C(=O)N(Cc1cc(C2CC2)cc(C(C)(C)C)c1)c1ccc(C(=O)O)c(O)c1)N(Cc1ccc(Cl)cc1)S(=O)(=O)c1c(F)c(F)c(F)c(F)c1F [Compound 1004, (R)-4-(N-(3-(tert-butyl)-5-cyclopropylbenzyl)-2-(N-(4-chlorobenzyl)-(2,3,4,5,6-pentafluorophenyl)sulfonamido)propanamido)-2-hydroxybenzoic acid]",5 to 10,–,–
"CC(C)C[C@H](C(=O)N(Cc1cc(C2CC2)cc(C(C)(C)C)c1)c1ccc(C(=O)O)c(O)c1)N(Cc1ccc(Cl)cc1)S(=O)(=O)c1c(F)c(F)c(F)c(F)c1F [Compound 1005, (R)-4-(N-(3-(tert-butyl)-5-cyclopropylbenzyl)-2-(N-(4-chlorobenzyl)-(2,3,4,5,6-pentafluorophenyl)sulfonamido)-4-methylpentanamido)-2-hydroxybenzoic acid]",–,–,IC50 (MV4-11 cells): 5 to 10 µM
"C[C@@H](C(=O)N(Cc1cc(C2CC2)cc(C2CC2)c1)c1ccc(C(=O)O)cc1OC1CC1)N(Cc1ccc(F)cc1Cl)S(=O)(=O)c1c(F)c(F)c(F)c(F)c1F [Compound 1006, (S)-4-(2-(N-(2-chloro-4-fluorobenzyl)-(2,3,4,5,6-pentafluorophenyl)sulfonamido)-N-(3,5-dicyclopropylbenzyl)propanamido)-3-cyclopropoxybenzoic acid]",–,2.37 to 9.23,–
"C[C@@H](C(=O)N(Cc1cc(C2CC2)cc(N2CCCC2)c1)c1ccc(C(=O)O)cc1C1CC1)N(Cc1ccc(F)cc1Cl)S(=O)(=O)c1c(F)c(F)c(F)c(F)c1F [Compound 1008, (S)-4-(2-(N-(2-chloro-4-fluorobenzyl)-(2,3,4,5,6-pentafluorophenyl)sulfonamido)-N-(3-cyclopropyl-5-(pyrrolidin-1-yl)benzyl)propan-amido)-3-cyclopropylbenzoic acid]",–,2.37 to 9.23,–
"C[C@H](C(=O)N(Cc1cc(C2CC2)cc(N2CCCC2)c1)c1ccc(C(=O)O)cc1C1CC1)N(Cc1ccc(F)cc1Cl)S(=O)(=O)c1c(F)c(F)c(F)c(F)c1F [Compound 1009, (R)-4-(2-(N-(2-chloro-4-fluorobenzyl)-(2,3,4,5,6-pentafluorophenyl)sulfonamido)-N-(3-cyclopropyl-5-(pyrrolidin-l-yl)benzyl)propan-amido)-3-cyclopropylbenzoic acid]",–,9.23 to 1670,–
